Legend:
Assay type in all cases: in vivo
[1] = tested on: Meloidogyne incognita (RKNi); assay: Pot trial: foliar spray in cotton against root-knot nematodes; settings: for performance in comparison to prior art tetramic acid compound spirotetramat: foliar 100 g/ha
Source text: POT TRIALS: Foliar spray in Cotton against nematodes Meloidogyne incognita (RKNi) using
12 1-L Clay pots were used per treatment. Cotton: Fibre Max 966 seeds were planted into pots and allowed to germinate and grow into young plants. The pots were artificially infested with nematodes (RKNi) 2 days after treatment.
APPLICATION: Compounds A and B and comparison Spirotetramat were sprayed as a normal foliar spray with hollow cone nozzles directed onto the plants. The compounds A, B and spirotetramat used were formulated as a suspension concentrate formulation at a dose rate of 100 g/ha. The compounds were diluted to a spray volume of approx […], which was used on the young plants. The treatment was applied when the plants had at least 2 true leaves.
Industry comparison Abamectin as a seed treatment was also included in the trials as a comparison. AVICTA® 500 FS from Syngenta AG was used at a rate of 500 g/L as a flowable concentrate (FS) formulation and applied to the seeds as a slurry to provide a rate of 0.15 mg of active ingredient per seed.
ASSESSMENT: Plants were removed 2 days after foliar spray treatment to assess penetration of the nematode in the roots with a dyeing method. Root galling/cysts were assessed according to standard practice.

[2] = tested on: Heterodera schachtii Schmidt (SBCN); assay: Pot trial: seed treatment and foliar spray in sugar beets, tuber weight; settings: sugar beet, n = 8-10, harvest after 4 months
Source text: POT TRIALS: Seed treatments and Foliar spray in sugar beets (Beta Vulgaris cv Impulse) against root nematodes Heterodera schachtii Schmidt (SBCN) (origin Münster, Germany)
15 7-L pots were used per treatment containing 7-L soil with an organic matter content of 2% (drench soil+sand). Seeds were planted into pot soil 1 cm deep and allowed to germinate and grow into young plants in a polytunnel. During the winter months, the pots were placed in a greenhouse. The pots were artificially infested with nematodes (SBCN) when preparing the soil for each pot and just before planting.
APPLICATION: Compounds A and comparison Spirotetramat were sprayed as a normal foliar spray with hollow cone nozzles directed onto the plants. The compounds A and Spirotetramat used were formulated as a suspension concentrate formulation at a dose rate of 100 g/ha. The first foliar spray was applied 14 days after sowing. A second foliar spray was carried out 3 weeks later.
Abamectin was used as a seed treatment. AVICTA® 500 FS from Syngenta AG was used at a rate of 500 g/L as a flowable concentrate (FS) formulation and applied to the seeds as a slurry to provide a rate of 0.6 mg of active ingredient per seed.
ASSESSMENT: Sugar beet plants were harvested after 4 months according to the prevailing temperatures and weather conditions. Sugar beet tuber weights were assessed according to standard practice.

[3] = tested on: Heterodera schachtii Schmidt (SBCN); assay: Pot trial: seed treatment and foliar spray in sugar beets, cysts per root system; settings: sugar beet, 25 days after inoculation
Protocol: POT TRIALS: Seed treatments and Foliar spray in sugar beets (Beta Vulgaris cv Impulse) against root nematodes Heterodera schachtii Schmidt (SBCN)
8×350 ml pots were used per treatment containing 350 ml soil (70% drench soil and 30% sand). 1 Seed per pot were planted into pot soil 0.5 cm deep and allowed to germinate and grow into young plants. Plants were kept under constant conditions of 25° C. during the day and 23° C. during the night with a humidity of 50-60% with 14 hour light periods. The pots were artificially infested with nematodes (SBCN) 7 days after sowing. For inoculation, 3 holes are drilled into the soil and 2 ml suspension of the nematodes per hole are applied.
APPLICATION: Compounds B and comparison Spirotetramat were sprayed as a normal foliar spray with hollow cone nozzles directed onto the plants. The compounds B and Spirotetramat used were formulated as a suspension concentrate formulation at a dose rate of 100 g/ha. The first foliar spray was applied 14 days after sowing (i.e. 7 days after inoculation). A second foliar spray was carried out 21 days after sowing (i.e. 14 days after inoculation).
Abamectin was used as a seed treatment. AVICTA® 400 FS from Syngenta AG was used at a rate of 400 g/L as a flowable concentrate (FS) formulation and applied to the seeds as a slurry to provide a rate of 0.6 mg and 1 mg of active ingredient per seed.
ASSESSMENT: Sugar beet plants were harvested 25 days after inoculation. Sugar beet root and shoot weights were assessed according to standard practice. Number of cysts per root system and as a function of root weight were assessed.

[4] = foliar 100 g/ha at BBCH 14, artificial infestation 2 days after foliar spray
[5] = foliar 100 g/ha, first application +14 days after sowing
[6] = seed treatment 0.15 mg/seed at BBCH 00, artificial infestation at crop stage BBCH 14

Row | Compound | performance in comparison to prior art tetramic acid compound spirotetramat [1] | % root length in cm compared to check (= 100%) [1, 4] | Number of root galls per plant [1, 4] | Mean tuber weight relative to inoculated check (%), Observed % [2, 5] | Efficacy in % of cyst nematodes per root system ([3]; Compound B 100 g/ha foliar) | Efficacy in % of cyst nematodes per root system ([3]; Abamectin 0.6 mg/seed seed treatment) | Efficacy in % of cyst nematodes per root system ([3]; Abamectin 1 mg/seed seed treatment) | % root length in cm compared to check (= 100%) [1, 6] | Number of root galls per plant [1, 6] | Mean tuber weight relative to inoculated check (%), Observed % ([2]; seed treatment 0.6 mg/seed at sowing)
1 | CCOC(=O)OC1=C(c2c(C)cc(Cl)cc2C)C(=O)NC12CCN(OC)CC2 [Compound A] | outperformed spirotetramat | 204% | 1 | 17.0% | – | – | – | – | – | –
2 | CCOC(=O)OC1=C(c2c(C)cc(Cl)cc2C)C(=O)N(C)C12CCN(OC)CC2 [Compound B] | outperformed spirotetramat | 213% | 0.33 | – | 12% | – | – | – | – | –
3 | CCOC(=O)OC1=C(c2cc(C)ccc2C)C(=O)N[C@]12CC[C@@H](OC)CC2 [Spirotetramat] | – | 100% | 5.83 | 30.0% | – | – | – | – | – | –
4 | Abamectin | – | – | – | – | – | 42% | 60% | 211% | 0.33 | 6.4%

— patent US9809593B2, “Use of tetramic acid derivatives as nematicides” (Syngenta Participations AG, priority 2013, dated 2017)
